For orientation: MIC80 means an inhibitory concentration at the 80% level, which refers to growth in some studies and to a panel of isolates in others. One may read the inhibition as how much of the control response was suppressed.

Molecules are shown by their SMILES. Values after ≈ are worked out from the molar mass of the structure shown. Like-named read-outs stand apart in the source and are kept apart here.

Results on 15 compounds are retold here after publication PMC12505902, “Inhibitors of trehalose-6-phosphate synthase activity in fungal pathogens compromise thermal tolerance pathways” (mBio, 2025).

The test system of one assay is C. albicans. To be noted: Supplemental Table 5, cited from earlier work.
Assay [1] concerns the target T1, 6xHis-CaTps1 (Candida albicans, UniProt Q92410).
T1 construct: Briefly, the full-length; thrombin cleavage site (pET-28a linker) (N); made in house; host or cells: E. coli BL21(DE3)pLysS
T1 sequence (Q92410 1-478): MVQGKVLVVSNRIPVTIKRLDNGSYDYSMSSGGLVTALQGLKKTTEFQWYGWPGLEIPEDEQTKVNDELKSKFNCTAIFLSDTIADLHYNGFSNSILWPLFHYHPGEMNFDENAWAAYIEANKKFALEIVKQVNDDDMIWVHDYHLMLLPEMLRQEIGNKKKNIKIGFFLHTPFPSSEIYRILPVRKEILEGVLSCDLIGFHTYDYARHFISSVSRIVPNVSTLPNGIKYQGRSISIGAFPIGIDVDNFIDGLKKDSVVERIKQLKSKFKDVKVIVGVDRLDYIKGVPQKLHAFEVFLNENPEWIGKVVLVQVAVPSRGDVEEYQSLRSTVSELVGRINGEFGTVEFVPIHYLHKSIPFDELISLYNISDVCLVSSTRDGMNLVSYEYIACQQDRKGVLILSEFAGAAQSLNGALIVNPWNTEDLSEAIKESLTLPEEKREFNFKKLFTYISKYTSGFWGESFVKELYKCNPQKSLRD
In words: UDP Transcreener FP assay, primary screen of the 3PP library. The class given is biochemical. To be noted: for inhibition at 500 µM: read-out: CaTps1 FP (% inhibition). An excerpt: As the first step of the trehalose biosynthesis pathway, Tps1 synthesizes T6P from the substrates UDP-glucose and G6P, followed by the release of UDP and T6P ([16]). To identify a small molecule inhibitor of Tps1 activity, we adapted an HTS utilizing the UDP Transcreener FP assay ([33], [34]). The FP assay detects the UDP released as a result of the Tps1-mediated enzymatic reaction (Fig. 1A). The FP assay Z’ factor, which describes the suitability of an assay for an HTS, is 0.87, indicating an ideal signal-to-noise ratio (Fig. S1A) ([35]). There was a greater than 175 millipolarization (mP) shift between the positive control novobiocin, an inhibitor with activity against a bacterial trehalose-P-synthase, and the negative control dimethyl sulfoxide (DMSO) (Fig. S1A) ([36]). Recombinant Tps1 from C. albicans, hereafter referred to as CaTps1, was expressed in E. coli and purified via an N-terminal 6xHis-tag and Ni^2-NTA affinity chromatography, followed by size exclusion chromatography (Fig. 1B). A 3-point pharmacophore (3PP) library, which consisted of a subset of 750 compounds of less than 300 Da in molecular mass from the St. Jude Children’s Research Hospital chemical library, was screened for the ability to inhibit 6xHis-CaTps1 activity ([37]). In the primary screen, 32 (4.3 %) compounds that inhibited the activity of 6xHis-CaTps1 by more than 10% at 500 µM concentration were identified (Fig. 1C and D). A 10% cutoff provided a significant number of hits to validate using a dose response assay (Fig. S1B). At the completion of the screen, seven compounds that inhibit the activity of CaTps1 in a dose-dependent manner were selected for further investigation (Fig. 1E; Table 1).
The glycosyltransferase activity of 6xHis-CaTps1, which results in the release of UDP, was measured using the UDP Transcreener FP assay (BellBrook Labs #3018, Madison, WI). The St. Jude Children’s Hospital (Memphis, TN) 3PP library was screened ([37]). Assays were performed at 37°C for 60 minutes in a 384-well plate using 5 µM 6xHis-CaTps1 in assay buffer containing 50 mM Tris-HCl pH 7.5, 300 mM NaCl, 10 mM MgCl2, and 1 mM dithiothreitol (DTT). Fluorescence polarization was detected using a BMG Labtech plate reader. Each assay plate contained the following additional control wells: (i) no antibody control, (ii) DMSO vehicle control, (iii) novobiocin positive control, and (iv) novobiocin dose-response. Screens were performed by the addition of single-point additions of test molecules to the above assay. The Z’ factor was calculated according to guidelines by Zhang et al., with a Z-factor of 0.5 and 1.0 indicating an excellent assay ([35]).

The test system of a further assay is Cryptococcus gattii. Further details: method as in PMID 27248439. To be noted: ref [12]; cited from earlier work.
On the set-up of assay [2]: method as in PMID 27248439. To be noted: ref [12]; cited from earlier work.
The test system of assay [3] is C. neoformans. Further details: method as in PMID 27248439. To be noted: ref [12]; cited from earlier work.
For assay [4], the system named is C. neoformans. Further details: method as in earlier work. To be noted: Supplemental Table 5; ref (13); cited from earlier work.
Assay [5] deals with T1, 6xHis-CaTps1. In words: Spectrophotometric-coupled Tps1 enzyme activity assay. The class given is biochemical, C. albicans. Conditions: compounds diluted in DMSO, normalized to the DMSO control. Here is the method: Fig 2 4456dh binds Tps1 and inhibits Tps1 activity. (A) Structure of 4456dh. (B and C) Glo-melt thermal shift assays reveal 4456dh destabilizes 6xHis-CaTps1 (B) and 6xHis-CnTps1 (C). The first derivative of the raw data was used to determine the melting temperature of 1 µM 6xHis-CaTps1 (B) and 1 µM 6xHis-CnTps1 (C) treated without (black) or with 2 mM 4456dh (red). […] The resulting dose-response curves were fitted to a one-site binding model to extract Kd values; the SD was calculated using the Kd values from each independent experiment (n = 3). (F) Tps1 enzyme activity assay with 5 µM 6xHis-CaTps1 (F) and 6xHis-CnTps1 (G) ±1 mM 4456dh. Error bars represent SE. […]
The ability of 4456dh to inhibit the activity of CaTps1 was tested using a spectrophotometric-coupled Tps1 enzyme assay, in which recombinant 6xHis-CaTps1 was incubated with 1 mM 4456dh at 4°C for 16 hours. […] Similarly, the effect of 1 mM 4456dh on 6xHis-CnTps1 activity was determined. […]
82 determined by SDS-PAGE analysis, were pooled and concentrated to 1 mg/mL for downstream […]
93 The data were acquired with MO.Control 1.5.3 (NanoTemper Technologies GmbH). Recorded
94 data were analyzed with MO.Affinity Analysis 2.2.7 (NanoTemper Technologies GmbH). […]
100 2X Glo-melt dye. Thermal denaturation was measured using an RT-PCR thermocycler (BioRad) […]
102 determined by identifying the inflection point of the derivative data. […]

Setting [6] is: primary screen, 500 µM compound, 5 µM 6xHis-CaTps1, 37°C 60 minutes.

In the case of `C[C@@H](c1ncncc1F)[C@](O)(Cn1cncn1)c1ccc(F)cc1F` [Voriconazole], the “MIC80” value in the assay on C. albicans (ref (11)) is recorded as 0.06 µg/mL (≈ 0.172 µM).
As to `CO[C@@H]1[C@@H](OC(N)=O)[C@@H](O)[C@H](Oc2ccc3c(O)c(NC(=O)c4ccc(O)c(CC=C(C)C)c4)c(=O)oc3c2C)OC1(C)C` [novobiocin, reference compound], the “millipolarization (mP) shift between positive control and DMSO” value at 6xHis-CaTps1 [1] (positive control versus negative control DMSO) is reported as “greater than 175 mP”.
Turning to `CN1CCc2c(sc(N)c2C#N)C1` [SJ000866390-1], the inhibition at 500 µM on 6xHis-CaTps1 [1] (setting [6]) is 36.4%.
For `Cc1cc(C(C#N)c2ccc(Cl)cc2)c(Cl)cc1NC(=O)c1cc(I)cc(I)c1O` (centres unmarked) [Closantel], the activity in vitro result in the assay on Cryptococcus gattii and in the assay with C. neoformans [3] was “potent activity” in each case. In assay [2], the “antifungal activity in murine models” value is listed as “does not have antifungal activity”.
Regarding `CN(C)C(C#N)c1ccccc1Cl` (centres unmarked) [SJ000866063-1], the inhibition at 500 µM on 6xHis-CaTps1 [1] is 19%.
Take `CC(Cc1ccoc1)NS(C)(=O)=O` (centres unmarked) [SJ000866077-1]: the inhibition at 500 µM on 6xHis-CaTps1 [1] (setting [6]) came to 11.1%.
As for `Nc1[nH]c(=O)ncc1F` [Flucytosine], the “MIC80” value with C. neoformans [4] is 8 µg/mL (≈ 62 µM).
Turning to `Nc1nc(-c2ccoc2)cs1` [SJ000866675-1, [4-furan-3-yl]thiazol-2-amine], the inhibition at 500 µM on 6xHis-CaTps1 [1] (setting [6]) worked out at 13.7%.
Take `Cn1cc(-c2csc(NC(=O)Cc3ccccn3)n2)cn1` [Compound 4456]: on 6xHis-CaTps1 [5], the “effect of SJ6675 derivatives on CaTps1 activity” value is given as “significantly inhibited the activity of CaTps1”.
With `CN(C)C(C#N)c1c(F)cccc1Cl` (centres unmarked) [SJ000866107-1], at 6xHis-CaTps1 [1], the inhibition at 500 µM is 18.2%.
For the compound `C[C@@H]1[C@H](O)[C@@H](C)/C=C/C=C/C=C/C=C/C=C/C=C/C=C/[C@H](O[C@@H]2O[C@H](C)[C@@H](O)[C@H](N)[C@@H]2O)C[C@@H]2O[C@](O)(C[C@@H](O)C[C@@H](O)[C@H](O)CC[C@@H](O)C[C@@H](O)CC(=O)O[C@H]1C)C[C@H](O)[C@H]2C(=O)O` [Amphotericin B], the “MIC80” value in the assay on C. neoformans [4] is on record as 2 µg/mL (≈ 2.16 µM).
Consider `N#CCC(=O)c1ccco1` [SJ000805629-1], for which the inhibition at 500 µM on 6xHis-CaTps1 [1] (setting [6]) was determined as 32.2%.
In the case of `O=C(C1CC1)N1CCCNCC1` [SJ000866536-1], the inhibition at 500 µM at 6xHis-CaTps1 [1] (setting [6]) worked out at 18.6%.
`OC(Cn1cncn1)(Cn1cncn1)c1ccc(F)cc1F` [Fluconazole]: in the assay with C. albicans (ref (11)), the “MIC80” value is 1.84 µg/mL (≈ 6.01 µM).
With `CC[C@H](C)C[C@H](C)CCCCCCCCC(=O)N[C@H]1C[C@@H](O)[C@@H](NCCN)NC(=O)[C@@H]2[C@@H](O)CCN2C(=O)[C@H]([C@H](O)CCN)NC(=O)[C@H]([C@H](O)[C@@H](O)c2ccc(O)cc2)NC(=O)[C@@H]2C[C@@H](O)CN2C(=O)[C@H]([C@@H](C)O)NC1=O` [Caspofungin], the “MIC80” value with C. albicans (ref (12)) was 1 µg/mL (≈ 0.915 µM).
